Experimental data from US12503436B2, “Compounds and compositions for treating conditions associated with STING activity” (NOVARTIS PHARMA AG, priority 2021, dated 2025).

Target: STING (Homo sapiens, UniProt Q86WV6, G230A/H232R/R293Q/R71H)
Assay: STING reporter assay in THP1-Dual KO-IFNAR2 cells (2′3′cGAMP stimulation, luciferase reporter)
Format: cell-based
Conditions: 15 μM 2′3′cGAMP stimulation, 24 h, read-out: Pharmaron, THP1_IFNAR2 STING 24 h Luci Normalized: GeoMean EC50
How it was run: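 THP1-Dual KO-IFNAR2 cells (2×10E6 cells/mL) with compounds at 0.0017-100 μM final, stimulated with 15 μM final 2′3′cGAMP delivered by Lipofectamine 2000; 24 h at 37 °C. Luciferase in supernatant read with QUANTI-Luc Plus; EC50 derived from luminescence.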

Chain of STING (Q86WV6 whole entry R71H/G230A/H232R/R293Q): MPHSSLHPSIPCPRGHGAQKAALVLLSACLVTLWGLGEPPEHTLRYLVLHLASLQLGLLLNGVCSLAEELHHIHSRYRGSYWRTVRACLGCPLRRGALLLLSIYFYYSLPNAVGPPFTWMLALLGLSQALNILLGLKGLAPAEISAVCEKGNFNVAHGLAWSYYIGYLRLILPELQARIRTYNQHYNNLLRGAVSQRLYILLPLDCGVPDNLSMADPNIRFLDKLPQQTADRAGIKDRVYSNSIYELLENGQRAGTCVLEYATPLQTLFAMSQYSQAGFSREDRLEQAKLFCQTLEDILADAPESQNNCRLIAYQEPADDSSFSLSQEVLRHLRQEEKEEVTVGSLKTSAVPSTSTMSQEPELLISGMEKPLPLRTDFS

EC50 [nM] | Compound
200 to 1000 | CC(C)(C)OC(=O)N1CC(C)(C(=O)Nc2c[nH]c3ccc(OCCc4ccc(C(F)(F)F)cc4)cc23)C1 [Compound 570, tert-butyl 3-methyl-3-((5-(4-(trifluoromethyl)phenethoxy)-1H-indol-3-yl)carbamoyl)azetidine-1-carboxylate]
200 to 1000 | O=C(Nc1c[nH]c2ccc(OCC[C@@H]3C[C@@H]4CN(CC(F)(F)F)C[C@@H]4C3)cc12)C1CC1(F)Cl (stereo partly drawn) [Compound 577, 2-chloro-2-fluoro-N-(5-(2-((3aR,5r,6aS)-2-(2,2,2-trifluoroethyl)octahydrocyclopenta[c]pyrrol-5-yl)ethoxy)-1H-indol-3-yl)cyclopropane-1-carboxamide]
1000 to 5000 | CC(=O)Nc1c[nH]c2c(Br)cc(CCOc3ccc(C(F)(F)F)cc3)cc12 [Compound 578, N-(7-bromo-5-(2-(4-(trifluoromethyl)phenoxy)ethyl)-1H-indol-3-yl)acetamide]
5000 to 100000 | CC(=O)Nc1c[nH]c2ccc(CCOc3cccnc3)cc12 [Compound 581, N-(5-(2-(pyridin-3-yloxy)ethyl)-1H-indol-3-yl)acetamide]
40 to 200 | N#C[C@@H]1C[C@@H]1C(=O)Nc1c[nH]c2ccc(CCOc3ccc(C(F)(F)F)cc3)cc12 [Compound 582, (1S,2R)-2-cyano-N-(5-(2-(4-(trifluoromethyl)phenoxy)ethyl)-1H-indol-3-yl)cyclopropane-1-carboxamide]
200 to 1000 | O=C(Nc1c[nH]c2ccc(OCc3ccc(C(F)(F)F)cc3)cc12)C1CC(F)(F)C1 [Compound 584, 3,3-difluoro-N-(5-((4-(trifluoromethyl)benzyl)oxy)-1H-indol-3-yl)cyclobutane-1-carboxamide]
200 to 1000 | N#C[C@H]1C[C@@H]1C(=O)Nc1c[nH]c2ccc(OCc3ccc(C(F)(F)F)cc3)cc12 [Compound 585, (1S,2S)-2-cyano-N-(5-((4-(trifluoromethyl)benzyl)oxy)-1H-indol-3-yl)cyclopropane-1-carboxamide]
200 to 1000 | N#CC1(C(=O)Nc2c[nH]c3ccc(OCc4ccc(C(F)(F)F)cc4)cc23)CC1 [Compound 586, 1-cyano-N-(5-((4-(trifluoromethyl)benzyl)oxy)-1H-indol-3-yl)cyclopropane-1-carboxamide]
40 to 200 | O=C(Nc1c[nH]c2ccc(OCC[C@@H]3C[C@@H]4CN(CC(F)(F)F)C[C@@H]4C3)cc12)C1CC(F)(F)C1 [Compound 588, 3,3-difluoro-N-(5-(2-((3aR,5r,6aS)-2-(2,2,2-trifluoroethyl)octahydrocyclopenta[c]pyrrol-5-yl)ethoxy)-1H-indol-3-yl)cyclobutane-1-carboxamide]
40 to 200 | O=C(Nc1c[nH]c2ccc(OCC[C@@H]3C[C@@H]4CN(CC(F)(F)F)C[C@@H]4C3)cc12)C1CC(F)C1 (stereo partly drawn) [Compound 589, 3-fluoro-N-(5-(2-((3aR,5r,6aS)-2-(2,2,2-trifluoroethyl)octahydrocyclopenta[c]pyrrol-5-yl)ethoxy)-1H-indol-3-yl)cyclobutane-1-carboxamide]
1000 to 5000 | CN1CC(C(=O)Nc2c[nH]c3ccc(CCOc4ccc(C(F)(F)F)cc4)cc23)C1 [Compound 590, 1-methyl-N-(5-(2-(4-(trifluoromethyl)phenoxy)ethyl)-1H-indol-3-yl)azetidine-3-carboxamide]
200 to 1000 | CC(C)(C)CC(=O)Nc1c[nH]c2ccc(CCOc3ccc(C(F)(F)F)cc3)cc12 [Compound 591, 3,3-dimethyl-N-(5-(2-(4-(trifluoromethyl)phenoxy)ethyl)-1H-indol-3-yl)butanamide]
200 to 1000 | CC1(C(=O)Nc2c[nH]c3ccc(CCOc4ccc(C(F)(F)F)cc4)cc23)CCOCC1 [Compound 594, 4-methyl-N-(5-(2-(4-(trifluoromethyl)phenoxy)ethyl)-1H-indol-3-yl)tetrahydro-2H-pyran-4-carboxamide]
40 to 200 | O=C(Nc1c[nH]c2ccc(CCOc3ccc(C(F)(F)F)cc3)cc12)C1CC1(F)F (stereo not drawn) [Compound 595, 2,2-difluoro-N-(5-(2-(4-(trifluoromethyl)phenoxy)ethyl)-1H-indol-3-yl)cyclopropane-1-carboxamide]
200 to 1000 | cis-3-hydroxy-N-(5-(2-((3aR,5r,6aS)-2-(2,2,2-trifluoroethyl)octahydrocyclopenta[c]pyrrol-5-yl)ethoxy)-1H-indol-3-yl)cyclobutane-1-carboxamide [Compound 344]

The remaining lines, values behind:

Compound | EC50 [nM]
CC1(C(=O)Nc2c[nH]c3ccc(O[C@H]4C[C@H](c5ccc(C(F)(F)F)cc5)C4)cc23)CCC1 [Compound 564, 1-methyl-N-(5-(trans-3-(4-(trifluoromethyl)phenyl)cyclobutoxy)-1H-indol-3-yl)cyclobutane-1-carboxamide] | 40 to 200
N#CC1(C(=O)Nc2c[nH]c3ccc(O[C@H]4C[C@H](c5ccc(C(F)(F)F)cc5)C4)cc23)CC1 [Compound 565, 1-cyano-N-(5-(trans-3-(4-(trifluoromethyl)phenyl)cyclobutoxy)-1H-indol-3-yl)cyclopropane-1-carboxamide] | 200 to 1000
CC1(C(=O)Nc2c[nH]c3ccc(O[C@H]4C[C@H](c5ccc(C(F)(F)F)cc5)C4)cc23)CNC1 [Compound 567, 3-methyl-N-(5-(trans-3-(4-(trifluoromethyl)phenyl)cyclobutoxy)-1H-indol-3-yl)azetidine-3-carboxamide] | 1000 to 5000
CC(C)(C)OC(=O)N1CC(C)(C(=O)Nc2c[nH]c3ccc(O[C@H]4C[C@H](c5ccc(C(F)(F)F)cc5)C4)cc23)C1 [Compound 568, tert-butyl 3-methyl-3-((5-(trans-3-(4-(trifluoromethyl)phenyl)cyclobutoxy)-1H-indol-3-yl)carbamoyl)azetidine-1-carboxylate] | 200 to 1000
CC1(C(=O)Nc2c[nH]c3ccc(OCCc4ccc(C(F)(F)F)cc4)cc23)CNC1 [Compound 569, 3-methyl-N-(5-(4-(trifluoromethyl)phenethoxy)-1H-indol-3-yl)azetidine-3-carboxamide] | 1000 to 5000
O=C(Nc1c[nH]c2ccc(O[C@H]3C[C@H](c4ccc(C(F)(F)F)cc4)C3)cc12)C1CC1(F)Cl (stereo partly drawn) [Compound 571, 2-chloro-2-fluoro-N-(5-(trans-3-(4-(trifluoromethyl)phenyl)cyclobutoxy)-1H-indol-3-yl)cyclopropane-1-carboxamide] | 200 to 1000
COC1CC(C(=O)Nc2c[nH]c3ccc(O[C@H]4C[C@H](c5ccc(C(F)(F)F)cc5)C4)cc23)C1 (stereo partly drawn) [Compound 572, 3-methoxy-N-(5-(trans-3-(4-(trifluoromethyl)phenyl)cyclobutoxy)-1H-indol-3-yl)cyclobutane-1-carboxamide] | 40 to 200
O=C(Nc1c[nH]c2ccc(O[C@H]3C[C@H](c4ccc(C(F)(F)F)cc4)C3)cc12)C1CC(O)C1 (stereo partly drawn) [Compound 573, 3-hydroxy-N-(5-(trans-3-(4-(trifluoromethyl)phenyl)cyclobutoxy)-1H-indol-3-yl)cyclobutane-1-carboxamide] | 40 to 200
O=C(Nc1c[nH]c2ccc(O[C@H]3C[C@H](c4ccc(C(F)(F)F)cc4)C3)cc12)C1CC1(F)F (stereo partly drawn) [Compound 574, 2,2-difluoro-N-(5-(trans-3-(4-(trifluoromethyl)phenyl)cyclobutoxy)-1H-indol-3-yl)cyclopropane-1-carboxamide] | 40 to 200
O=C(Nc1c[nH]c2ccc(O[C@H]3C[C@@H](c4ccc(C(F)(F)F)cc4)C3)cc12)C1CC1(F)Cl (stereo partly drawn) [Compound 575, 2-chloro-2-fluoro-N-(5-(cis-3-(4-(trifluoromethyl)phenyl)cyclobutoxy)-1H-indol-3-yl)cyclopropane-1-carboxamide] | 200 to 1000
O=C(Nc1c[nH]c2ccc(O[C@H]3C[C@@H](c4ccc(C(F)(F)F)cc4)C3)cc12)C1CC(F)C1 (stereo partly drawn) [Compound 576, 3-fluoro-N-(5-(cis-3-(4-(trifluoromethyl)phenyl)cyclobutoxy)-1H-indol-3-yl)cyclobutane-1-carboxamide] | 40 to 200
CC1(C(=O)Nc2c[nH]c3ccc(O[C@H]4C[C@@H](c5ccc(C(F)(F)F)nc5)C4)cc23)CC1 [Compound 579, 1-methyl-N-(5-(cis-3-(6-(trifluoromethyl)pyridin-3-yl)cyclobutoxy)-1H-indol-3-yl)cyclopropane-1-carboxamide] | 200 to 1000
O=C(Nc1c[nH]c2ccc(O[C@H]3C[C@@H](c4ccc(C(F)(F)F)cc4)C3)cc12)C1CC(F)(F)C1 [Compound 587, 3,3-difluoro-N-(5-(cis-3-(4-(trifluoromethyl)phenyl)cyclobutoxy)-1H-indol-3-yl)cyclobutane-1-carboxamide] | 40 to 200
O=C(Nc1c[nH]c2ccc(CCOc3ccc(C(F)(F)F)cc3)cc12)C1CC1 [Compound 592, N-(5-(2-(4-(trifluoromethyl)phenoxy)ethyl)-1H-indol-3-yl)cyclopropanecarboxamide] | 200 to 1000
O=C(Nc1c[nH]c2ccc(CCOc3ccc(C(F)(F)F)cc3)cc12)C1CC(F)C1 (stereo not drawn) [Compound 593, 3-fluoro-N-(5-(2-(4-(trifluoromethyl)phenoxy)ethyl)-1H-indol-3-yl)cyclobutane-1-carboxamide] | 40 to 200
